“Also recorded” adds a separate entry of the source. Where two headings read alike, the source gives them in different places.
Assays:
[1] = target: hCB2 (Homo sapiens, UniProt P34972); assay: radioligand displacement binding at CB2 ([3H]CP55940, membranes of CHO-K1 cells over-expressing receptor)
Method: (§1) All compounds were characterized by H^1 NMR and evaluated using a calcium mobilization assay. […] Further characterization of select compounds was performed using radioligand displacement of [3H]1 and equilibrium dissociation constant (Ki) values were determined.

[2] = target: T1, hCB1 (Homo sapiens, UniProt P21554); assay: functional fluorescent CB1 activated Gαq16-coupled intracellular calcium mobilization assay in CHO-K1 cells; type: cell-based; set-up: expressed in transfected cells; host or cells: CHO-K1 (membranes); conditions: average of 3-6 measurements, read-out: Apparent antagonist dissociation constant (Ke) at hCB1
[3] = tested on: MDCK; assay: MDCK BBB Assay; type: in vitro ADME; conditions: for % Permeable: MDCK BBB assay; for MDCK BBB Assay (Basolateral/Apical Peak Area Ratio) Mean: MDCK cells
[4] = target: T1, hCB1; assay: radioligand displacement binding at CB1 (membranes of CHO-K1 cells over-expressing receptor); conditions: for CB2 Ki/CB1 Ki selectivity ratio: CB1 versus CB2
Method: as §1

[5] = in vivo brain penetration, brain and plasma levels by LC/MS/MS; conditions: mouse, po, mice, cassette dosed orally at 2.5 mg/kg, read-out: Brain:Plasma Ratio
Method: Select compounds were chosen for in vivo studies to determine penetration into the CNS. Compounds were cassette dosed orally at 2.5 mg/kg in mice. Brain and plasma samples were collected at 1, 2, 4, and 24 hours post dose and samples were analyzed by LC/MS/MS (Table 5, below). Unperfused brains were used which contain a blood volume of approximately 4%.

[6] = tested on: mouse model of AS; assay: alcohol induced liver steatosis mouse model, Oil Red O staining of liver sections; type: in vivo, C57BL/6J mice
From the text: FIG. 1A-1B. […] (FIG. 1A) Representative liver sections from mice receiving control diet without ethanol+vehicle (left panel), ethanol containing diet+vehicle (center panel) or ethanol containing diet+98 (right panel).
Pathogen-free female C57BL/6J mice, aged 9 weeks (Jackson Laboratories, Bar Harbor, Me., USA) weighing 19-21 g were used in this study. C57BL/6 mice were offered solid PicoLab Certified Rodent LabDiet® 5053 (pellet) ad libitum during the acclimation period following which, all animals were switched to a Lieber-DeCarli 82′ Control (Catalog No: F1259SP, BioServ®) diet which was nutritionally complete. […] Digitized images of mouse liver sections (10 μm in thickness) were assessed semi-quantitatively for degree of steatosis using Image J software (NIH, Bethesda, Md.). Briefly, a 5 in^2 digital grid (Image J Command Menu: Plugin-Analyze-Grid) was placed on each image wherein lipid droplets in 6 grids per image were counted and the average number of oil droplets was recorded for each animal (n=6, per group). […] Statistical significance was determined through ANOVA between treatment and control groups using Graph Pad Prism 7.0 (GraphPad Software Inc., La Jolla, Calif., USA) at a confidence level of *p<0.001.
In contrast, the ethanol containing diet caused significant accumulation of lipid droplets (center panel in FIG. 1A). […] The data are quantified in FIG. 1B.

[7] = tested on: alcoholic steatosis, AS; conditions: past studies; cited from earlier work
[8] = read-out: Binding affinity (Ki) at hCB1, radioligand displacement, CHO-K1 membranes, average of 3-6 measurements

T1 sequence (P21554 whole entry): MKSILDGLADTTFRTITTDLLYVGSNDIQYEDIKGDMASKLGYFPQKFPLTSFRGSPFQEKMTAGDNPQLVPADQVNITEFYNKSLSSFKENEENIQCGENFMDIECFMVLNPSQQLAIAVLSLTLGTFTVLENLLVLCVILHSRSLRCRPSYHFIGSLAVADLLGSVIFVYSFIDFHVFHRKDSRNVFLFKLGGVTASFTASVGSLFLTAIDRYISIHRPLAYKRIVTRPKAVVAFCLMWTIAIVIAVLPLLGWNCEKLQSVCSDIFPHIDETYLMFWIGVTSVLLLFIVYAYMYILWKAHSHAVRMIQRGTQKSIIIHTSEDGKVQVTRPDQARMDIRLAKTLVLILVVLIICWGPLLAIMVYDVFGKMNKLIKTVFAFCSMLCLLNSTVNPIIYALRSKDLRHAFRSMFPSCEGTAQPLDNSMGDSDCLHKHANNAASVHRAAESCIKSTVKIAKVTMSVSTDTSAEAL
hCB2, sequence (P34972 whole entry): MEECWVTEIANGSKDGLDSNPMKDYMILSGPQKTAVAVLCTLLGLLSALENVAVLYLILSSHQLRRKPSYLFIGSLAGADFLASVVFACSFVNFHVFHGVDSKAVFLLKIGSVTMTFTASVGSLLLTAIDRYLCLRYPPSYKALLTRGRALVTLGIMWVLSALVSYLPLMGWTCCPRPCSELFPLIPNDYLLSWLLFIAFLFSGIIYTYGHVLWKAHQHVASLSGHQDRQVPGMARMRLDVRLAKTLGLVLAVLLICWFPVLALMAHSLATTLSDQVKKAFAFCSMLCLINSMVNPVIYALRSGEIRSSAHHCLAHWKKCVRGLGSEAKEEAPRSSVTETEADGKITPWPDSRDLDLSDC

With `O=S(=O)(NC1CCN(c2ncnc3c2nc(-c2ccccc2Cl)n3-c2ccc(Cl)cc2)CC1)c1ccc(F)cc1F` [Compound 5, N-{1-[8-(2-Chlorophenyl)-9-(4-chlorophenyl)-9H-purin-6-yl]piperidin-4-yl}-2,4-difluorobenzene-1-sulfonamide] the melting point was 232 to 233 °C, the Ki [1] was 53000 nM and the Kb [2] was 2 nM. For the same molecule, the “% Permeable” value [3] was 0%, the “MDCK BBB Assay (Basolateral/Apical Peak Area Ratio) Mean” value [3] was 0.0008 and the “CB2 Ki/CB1 Ki selectivity ratio” value [4] was 26000. The Ki [4, 8] was 2 nM.

In the case of `O=C(Nc1ccccc1F)NC1CCN(c2ncnc3c2nc(-c2ccccc2Cl)n3-c2ccc(Cl)cc2)CC1` [Compound 19, 3-{1-[8-(2-Chlorophenyl)-9-(4-chlorophenyl)-9H-purin-6-yl]piperidin-4-yl}-1-(2-fluorophenyl)urea], the “% Permeable” value [3] is reported as 0% and the Kp [5] is reported as 0.03.

For `N=C(NC1CCN(c2ncnc3c2nc(-c2ccccc2Cl)n3-c2ccc(Cl)cc2)CC1)c1ccc(F)cc1` [Compound 26, N-{1-[8-(2-chlorophenyl)-9-(4-chlorophenyl)-9H-purin-6-yl]piperidin-4-yl}-4-fluorobenzenecarboximidamide], the Ki [1] was > 6000 nM, the Kb [2] was 44 nM and the “% Permeable” value [3] was 0%. The “MDCK BBB Assay (Basolateral/Apical Peak Area Ratio) Mean” value [3] was 0.0019, the Ki [4] was 520 nM and the “CB2 Ki/CB1 Ki selectivity ratio” value [4] was >11. It also gave a Kp [5] of 0.16.

In the case of `O=C(Nc1ccc(OC(F)F)nc1)N1CCN(c2ncnc3c2nc(-c2ccccc2Cl)n3-c2ccc(Cl)cc2)CC1` [Compound 44, 4-[8-(2-Chlorophenyl)-9-(4-chlorophenyl)-9H-purin-6-yl]-N-[6-(difluoromethoxy)pyridin-3-yl]piperazine-1-carboxamide], the melting point is reported as 118 to 120 °C, the Ki [1] is reported as 74000 nM and the Ki [4, 8] is reported as 4 nM. For the same molecule, the Kp [5] was 0.18.

With `Clc1ccc(-n2c(-c3ccccc3Cl)nc3c(N4CCN(Cc5ccccc5Cl)CC4)ncnc32)cc1` [Compound 98, 6-[4-(2-Chlorobenzyl)piperazin-1-yl]-8-(2-chlorophenyl)-9-(4-chlorophenyl)-9H-purine] the “hepatic lipid accumulation / liver steatosis (Oil Red O lipid droplets)” value ([6]; ethanol diet-fed mice, 1.25 mg/kg twice daily by oral gavage, two weeks, vs ethanol+vehicle, 1.25 mg/kg) was “significantly reduced hepatic lipid accumulation; also recorded: statistically significant reduction of liver steatosis”, the “disease progression/development in a mouse model of AS” value ([6]; mouse model of alcoholic steatosis) was “block disease progression/development” and the Kp [5] was 0.06.

`Clc1ccc(-n2c(-c3ccccc3Cl)nc3c(N4CCN(Cc5cccc(Cl)c5)CC4)ncnc32)cc1` [Compound 99, 6-[4-(3-Chlorobenzyl)piperazin-1-yl]-8-(2-chlorophenyl)-9-(4-chlorophenyl)-9H-purine] showed a Kp [5] of 0.09.

In the case of `Cc1c(C(=O)NN2CCCCC2)nn(-c2ccc(Cl)cc2Cl)c1-c1ccc(Cl)cc1` [rimonabant], the “reduction of alcoholic steatosis (AS)” value [7] is listed as “effective in reducing AS”.

Source: US10696677B2 (Research Triangle Institute, priority 2016, dated 2020)
